The nature of data set [1]: Protonation constant of the compound. The data set is classed as ADME.
Data set [2] can be described thus: physchem. Conditions: octanol/water.
Data set [3] in a line: physchem. The settings on record: buffer, pH 7.4.
Description: log P values determined at pH 7.4
Data set [4] can be described thus: log k (capacity factor) was measured by micellar liquid chromatography in Brij35 medium. The settings on record: 0.04 M Brij35.
Data set [5] can be described thus: Half life period is estimated. The data set is classed as ADME.
Data set [6] in a line: Volume of distribution in the plasma fluid was determined. The data set is classed as ADME, organism-based.
Data set [7] can be described thus: Compound was tested for its binding affinity towards brain (Hippocampus) Adenylate cyclase. Details: species or system Cavia porcellus.
Data set [8] can be described thus: Compound was tested for its binding affinity towards brain (neocortex) Adenylate cyclase. The arrangement: species or system Cavia porcellus.
The target in another data set is Histamine H2 receptor (Cavia porcellus, UniProt P47747). Description: Inhibitory activity against brain adenylate cyclase Histamine H2 receptor. The data set is classed as functional.
Data set [9] is described as follows: Therapeutic plasma levels for the compound was evaluated. The data set is classed as ADME, cell-free.
Data set [10] is described as follows: Compound was tested for its inhibitory activity against Noradrenaline receptor. The arrangement: species or system Rattus norvegicus.
For data set [11] the following is noted: octanol/water.
The next data set can be described thus: in vivo. The settings on record: plasma.
Data set [12] deals with T1, Alpha-1A adrenergic receptor (Rattus norvegicus, UniProt P43140).
T1 sequence (P43140 whole entry): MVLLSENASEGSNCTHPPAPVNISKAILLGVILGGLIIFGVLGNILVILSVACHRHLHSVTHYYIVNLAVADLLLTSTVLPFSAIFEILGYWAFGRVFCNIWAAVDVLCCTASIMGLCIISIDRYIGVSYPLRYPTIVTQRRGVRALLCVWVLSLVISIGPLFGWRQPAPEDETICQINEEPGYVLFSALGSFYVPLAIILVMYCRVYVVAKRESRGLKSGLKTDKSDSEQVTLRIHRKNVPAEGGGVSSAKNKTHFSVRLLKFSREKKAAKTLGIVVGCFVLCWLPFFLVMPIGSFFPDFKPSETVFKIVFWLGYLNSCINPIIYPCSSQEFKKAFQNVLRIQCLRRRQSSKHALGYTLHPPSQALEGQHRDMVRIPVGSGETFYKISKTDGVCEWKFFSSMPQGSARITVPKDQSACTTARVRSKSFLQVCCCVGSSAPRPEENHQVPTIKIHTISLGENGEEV
Put plainly: Compound was tested for its inhibitory activity against Alpha-1 adrenergic receptor.

For the next data set, the target named is Histamine H1 receptor (Rattus norvegicus, UniProt P31390). Put plainly: Compound tested for its inhibitory activity against Histamine H1 receptor.
Data set [13] in a line: Partition coefficient (logP). Conditions: octanol/water. The data set is classed as physicochemical.
Data set [14] is described as follows: log P value at pH 7.4. The settings on record: buffer. The data set is classed as physicochemical.
A short description of data set [15]: Protonation constant by using Brij35 as a medium. The data set is classed as ADME.
The conditions of data set [16]: buffer, pH 7.4.
Description: log P values determined at pH 7.4
Data set [17] concerns the target Serotonin (5-HT) receptor. Description: Compound was tested for its inhibitory activity against 5-hydroxytryptamine receptor. The data set is classed as protein assay, Rattus norvegicus.

Structures are written as SMILES.

The values that follow come from ChEMBL document CHEMBL1132276, “Development of predictive retention-activity relationship models of tricyclic antidepressants by micellar liquid chromatography” (J Med Chem, 1999).

For orientation: pKa means the pH at which an ionisable group is half protonated. One may read the logP as the decadic logarithm of the partition coefficient of the neutral form, usually between octanol and water. A higher logP goes with higher lipophilicity. Broadly, the logD is the decadic logarithm of the distribution of all forms, ionised or not, between an organic phase and buffer at a given pH. A lower logD goes with lower lipophilicity. As usually defined, the half-life is the time in which the quantity being followed falls by half. What is called Vd is a proportionality between amount in the body and measured concentration, not a real space. For orientation: Ki means a measure of affinity in units of concentration, obtained from inhibition or displacement. Read a high Ki as a looser hold on the target. What is called IC50 is the concentration that gives 50% inhibition. Lower therefore signals higher potency. Broadly, the clearance is the volume of plasma or blood freed of the substance per unit of time. Read a high clearance as a high capacity for elimination.

Chain of Histamine H2 receptor (P47747 whole entry): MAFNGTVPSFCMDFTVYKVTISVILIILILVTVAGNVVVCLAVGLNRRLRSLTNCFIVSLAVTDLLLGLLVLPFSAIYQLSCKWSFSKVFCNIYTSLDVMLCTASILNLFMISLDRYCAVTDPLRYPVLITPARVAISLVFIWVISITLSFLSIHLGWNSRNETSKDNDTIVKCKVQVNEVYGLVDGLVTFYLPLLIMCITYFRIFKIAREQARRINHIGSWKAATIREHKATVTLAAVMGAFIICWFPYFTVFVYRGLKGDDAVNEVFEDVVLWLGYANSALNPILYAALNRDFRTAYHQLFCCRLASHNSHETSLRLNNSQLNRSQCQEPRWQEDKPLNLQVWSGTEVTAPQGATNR
Chain of Histamine H1 receptor (P31390 whole entry): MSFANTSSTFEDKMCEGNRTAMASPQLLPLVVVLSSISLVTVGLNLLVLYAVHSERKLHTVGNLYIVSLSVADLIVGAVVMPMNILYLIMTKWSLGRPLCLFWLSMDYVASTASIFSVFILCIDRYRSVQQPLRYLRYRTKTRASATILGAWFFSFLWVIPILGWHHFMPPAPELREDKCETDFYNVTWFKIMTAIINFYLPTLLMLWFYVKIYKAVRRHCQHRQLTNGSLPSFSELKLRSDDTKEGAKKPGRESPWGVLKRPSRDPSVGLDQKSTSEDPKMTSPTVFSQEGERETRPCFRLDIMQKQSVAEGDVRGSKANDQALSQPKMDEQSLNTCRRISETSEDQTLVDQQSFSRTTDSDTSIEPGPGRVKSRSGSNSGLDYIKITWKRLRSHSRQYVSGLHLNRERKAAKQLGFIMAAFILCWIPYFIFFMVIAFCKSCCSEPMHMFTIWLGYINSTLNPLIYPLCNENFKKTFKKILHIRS
Description for in vivo: Plasma clearance for the compound was determined.

For the compound `CNCCCC12CCC(c3ccccc31)c1ccccc12` [MAPROTILINE], the pKa in data set [1] came to 10.5. The same compound had a logP in “physchem [2]” of 4.22. Further, in “physchem [3]”, the logD was 1.12. The “Log K” value in data set [4] amounted to 1.47.

For `CN1CCN2c3ccccc3Cc3ccccc3C2C1` (stereo not given) [MIANSERIN], in data set [5], the half-life was 25 h. In addition, the volume of distribution (Vd) in data set [6] turned out to be 16 L/kg. This compound also showed a pKa in [1] of 7.1. The figures for the Ki in [7] and in data set [8] were 65 nM and 71 nM, respectively. The IC50 on Histamine H2 receptor stood at 880 nM. Also, in “physchem [2]”, the logP was found to be 4.26. The compound further showed a logD in “physchem [3]” of 4.08. The “Log K” value in [4] stood at 1.87.

`CN(C)CCCN1c2ccccc2CCc2ccc(Cl)cc21` [CLOMIPRAMINE]: in data set [6], the Vd stood at 13.5 L/kg. In data set [9], the T.P.L amounted to 90 ng/mL. The pKa in data set [1] came out at 9.38. Besides, the Ki in data set [7] came to 55 nM; in [8] it was 43 nM. Besides, the IC50 at Histamine H2 receptor amounted to 720 nM; in data set [10], 46 nM. The logP in data set [11] stood at 5.19. Also, the clearance in “in vivo” was 1210 mL/min. Moreover, the logD in “physchem [3]” was found to be 3.32. Besides, in data set [4], the “Log K” value is 1.89.

In [1], `CN(C)CCC=C1c2ccccc2C(C)(C)c2ccccc21` had a pKa of 7.38. Also, the logP in the data set “physchem [2]” came to 5.12. The compound further registered a logD in the data set “physchem [3]” of 4.83. Further, the “Log K” value in [4] worked out at 1.97.

In the case of `CNCCC=C1c2ccccc2CCc2ccccc21` [NORTRIPTYLINE], the half-life in data set [5] is 35.5 h. Also, the Vd in data set [6] came to 35 L/kg. For the same compound, the pKa in data set [1] is 9.7. Also, the IC50 in data set [12] came to 40 nM; at Histamine H1 receptor it was 50 nM; on Histamine H2 receptor, 7000 nM; in [10] it was 9 nM. Besides, the inhibition constant Ki in [7] worked out at 450 nM; in data set [8], 280 nM. The clearance in “in vivo” was 1320 mL/min. This compound also returned a log partition coefficient (logP) in “physchem [2]” of 4.32. Moreover, the logD in “physchem [3]” amounted to 2.02. Besides, the “Log K” value in data set [4] was determined as 1.52.

For `O=C(O)CCCCCCNC1c2ccccc2CCc2ccccc21` [AMINEPTINE], in data set [13], the log partition coefficient (logP) was found to be 2.44. The compound also showed a logD in data set [14] of 2.26. The compound further registered a pKa in data set [15] of 5.24. Besides, in [4], the “Log K” value turned out to be 1.09.

`CN(C)CCCN1c2ccccc2CCc2ccccc21` [IMIPRAMINE] gave a Vd in data set [6] of 30 L/kg. The same compound came in with a T.P.L in data set [9] of 275 ng/mL. The Ki in [7] and in data set [8] was 160 nM each time. The IC50 came to 60 nM at Histamine H1 receptor, 1900 nM on Histamine H2 receptor and 46 nM in data set [10]. Besides, in [4], the “Log K” value is listed as 1.8.

The compound `Clc1ccc2c(c1)C(N1CCNCC1)=Nc1ccccc1O2` [AMOXAPINE] yielded a pKa in data set [1] of 7.6. Moreover, the logD in [16] amounted to 3.48. In the data set “physchem [2]”, this compound gave a log partition coefficient (logP) of 3.89. For the same compound, in [4], the “Log K” value was determined as 1.63.

On to `c1ccc2c(c1)CCc1ccccc1N2C1CN2CCC1CC2` (stereo not given) [QUINUPRAMINE], for which, in data set [15], the pKa turned out to be 7.85. The compound also yielded a logP in the data set “physchem [2]” of 4.94. The same compound came in with a logD in the data set “physchem [3]” of 1.36. For the same compound, the “Log K” value in data set [4] is given as 1.62.

For `CN(C)CC/C=C1/c2ccccc2COc2ccccc21` [DOXEPIN], the half-life in data set [5] was 16.5 h. The same compound came in with a pKa in data set [1] of 9. The IC50 is 10 nM in data set [12], 1600 nM on Histamine H2 receptor and 65 nM in data set [10]. In addition, the values for the Ki in data set [7] and in [8] were 170 nM and 190 nM, respectively. The compound also showed a clearance in the data set “in vivo” of 850 mL/min. The lipophilicity (logP) in “physchem [2]” came out at 3.88. In the data set “physchem [3]”, this compound showed a logD of 2.27. Besides, the “Log K” value in data set [4] came to 1.69.

Regarding `CNCCCN1c2ccccc2CCc2ccccc21` [DESIPRAMINE], the half-life in [5] is 37.5 h. Further, the Vd in [6] was found to be 22 L/kg. For the same compound, the T.P.L in data set [9] amounted to 212.5 ng/mL. Moreover, the results for the Ki in data set [7] and in [8] were 350 nM and 320 nM, respectively. Moreover, the IC50 against Histamine H2 receptor was determined as 3800 nM; in [10], 2 nM. Further, the “Log K” value in data set [4] worked out at 1.46.

`CC(CN(C)C)CN1c2ccccc2CCc2ccccc21` (stereo not given) [TRIMIPRAMINE] returned a pKa in data set [15] of 6.77. The logD in [16] is reported as 4.64. Moreover, the logP in the data set “physchem [2]” was determined as 4.73. For the same compound, the “Log K” value in data set [4] was 1.86.

`CN(C)CCC=C1c2ccccc2CCc2ccccc21` [AMITRIPTYLINE]: the IC50 in data set [17] stood at 44 nM; in data set [12], 20 nM; at Histamine H1 receptor it was 20 nM; against Histamine H2 receptor it was 660 nM; in data set [10], 41 nM. For the same compound, the half-life in [5] was 27.5 h. The Vd in data set [6] stood at 15 L/kg. In data set [9], this compound gave a T.P.L of 180 ng/mL. In data set [1], this compound came in with a pKa of 9.42. Moreover, the Ki amounted to 53 nM in data set [7] and 60 nM in [8]. In the data set “in vivo”, this compound showed a clearance of 1200 mL/min. The compound also showed a logP in the data set “physchem [2]” of 4.64. This compound showed a logD in the data set “physchem [3]” of 2.62. For the same compound, the “Log K” value in data set [4] is on record as 1.84.

`CN1CCN(C2=Nc3ccccc3Oc3ccc(Cl)cc32)CC1` [LOXAPINE] showed a pKa in [1] of 6.6. Further, the “Log K” value in data set [4] came to 1.86.

The compound `CN(C)CCC=C1c2ccccc2CSc2ccccc21` [DOTHIEPIN] came in with a pKa in data set [1] of 9.25. This compound came in with a logP in the data set “physchem [2]” of 4.52. For the same compound, the logD in the data set “physchem [3]” amounted to 2.66. In addition, in data set [4], the “Log K” value amounted to 1.74.
